In this assay the target is T1, human M2 receptor (Homo sapiens, UniProt P08172).
T1 sequence (P08172 1-466): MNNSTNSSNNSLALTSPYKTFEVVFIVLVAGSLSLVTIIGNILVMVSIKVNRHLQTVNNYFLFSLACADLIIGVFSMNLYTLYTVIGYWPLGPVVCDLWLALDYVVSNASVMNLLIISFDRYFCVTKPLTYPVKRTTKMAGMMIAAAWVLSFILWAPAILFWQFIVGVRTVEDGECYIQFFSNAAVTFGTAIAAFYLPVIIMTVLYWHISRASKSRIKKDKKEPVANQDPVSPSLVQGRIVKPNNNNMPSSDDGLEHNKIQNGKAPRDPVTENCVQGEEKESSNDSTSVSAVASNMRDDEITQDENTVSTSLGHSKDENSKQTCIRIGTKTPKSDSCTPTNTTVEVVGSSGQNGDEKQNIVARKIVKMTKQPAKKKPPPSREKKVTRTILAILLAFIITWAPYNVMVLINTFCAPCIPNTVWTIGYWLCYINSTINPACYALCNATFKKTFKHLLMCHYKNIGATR
Put plainly: Functional M2-GIRK1/4 activation test: allosteric potency (EC50) and efficiency. The conditions noted are these: for pEC50: Receptor activity EC50, CHO-DUKX-M2-GIRK cells, acetylcholine at EC20, in some cases mean of two or more determinations; for Emax: read-out: Efficiency, boosting of the acetylcholine effect at EC20 acetylcholine concentration; for Emax / Efficiency: CHO-DUKX-M2-GIRK cells; for Efficiency: boosting of the acetylcholine effect at EC20 acetylcholine concentration.

pEC50: −log10 of the molar value.

In general, pEC50 refers to −log10 of the EC50, conventionally taken in molar units. Low readings indicate a high EC50, high ones a low EC50. Regarding `CCC(NC(=O)c1cn(-c2ncc(F)cc2F)c2nc(N3CCNC3=O)ccc2c1=O)C(F)(F)C(F)(F)F` (racemic) [Example 164, 1-(3,5-Difluoropyridin-2-yl)-4-oxo-7-(2-oxoimidazolidin-1-yl)-N-[1,1,1,2,2-pentafluoropentan-3-yl]-1,4-dihydro-1,8-naphthyridine-3-carboxamide], the pEC50 is 7.85 and the Emax worked out at 100%.

With `O=C(NC(c1c(F)cccc1F)C(F)(F)F)c1cn(-c2ncc(F)cc2F)c2nc(N3C[C@@H](O)CC3=O)ccc2c1=O` (stereo partly drawn) [Example 9, N-[1-(2,6-Difluorophenyl)-2,2,2-trifluoroethyl]-1-(3,5-difluoropyridin-2-yl)-7-[(4S)-4-hydroxy-2-oxopyrrolidin-1-yl]-4-oxo-1,4-dihydro-1,8-naphthyridine-3-carboxamide], the negative logarithm of the EC50 (pEC50) is 7.70 and the Emax worked out at 94.5%.

`CC(NC(=O)c1cn(-c2ncc(F)cc2F)c2nc(N3CCC(CO)(CO)CC3)ccc2c1=O)C(F)(F)C(F)(F)F` (single isomer, unassigned) [Example 185, 7-[4,4-Bis(hydroxymethyl)piperidin-1-yl]-1-(3,5-difluoropyridin-2-yl)-4-oxo-N-[3,3,4,4,4-pentafluorobutan-2-yl]-1,4-dihydro-1,8-naphthyridine-3-carboxamide]: the pEC50 was 6.92 and the Emax was 100%.

As for `O=C(NC(C1CC1)C(F)(F)F)c1cn(-c2ncc(F)cc2F)c2nc(N3CC4CC4(O)C3)ccc2c1=O` (stereo not shown) [Example 36, N-[1-Cyclopropyl-2,2,2-trifluoroethyl]-1-(3,5-difluoropyridin-2-yl)-7-[1-hydroxy-3-azabicyclo[3.1.0]hex-3-yl]-4-oxo-1,4-dihydro-1,8-naphthyridine-3-carboxamide], the negative-log EC50 (pEC50) is 7.66 and the Emax stood at 100%.

As for `CC[C@@H](NC(=O)c1cn(-c2ncc(F)cc2Cl)c2nc(N3C[C@@H](O)CC3=O)ccc2c1=O)C(F)(F)F` [Example 20, 1-(3-Chloro-5-fluoropyridin-2-yl)-7-[(4S)-4-hydroxy-2-oxopyrrolidin-1-yl]-4-oxo-N-[(2R)-1,1,1-trifluorobutan-2-yl]-1,4-dihydro-1,8-naphthyridine-3-carboxamide], the negative logarithm of the EC50 (pEC50) was 6.48 and the Emax turned out to be 87%.

Consider `CC(NC(=O)c1cn(-c2ncc(F)cc2F)c2nc(N3CC4(COC4)C3)ccc2c1=O)C(F)(F)C(F)(F)F` (single isomer, unassigned) [Example 181, 1-(3,5-Difluoropyridin-2-yl)-7-(2-oxa-6-azaspiro[3.3]hept-6-yl)-4-oxo-N-[3,3,4,4,4-pentafluorobutan-2-yl]-1,4-dihydro-1,8-naphthyridine-3-carboxamide], for which the pEC50 was 6.66 and the Emax amounted to 100%.

In the case of `CC(C)C[C@H](NC(=O)c1cn(-c2ncc(F)cc2F)c2nc(N3CCNC3=O)ccc2c1=O)C(F)(F)F` [Example 157, 1-(3,5-Difluoropyridin-2-yl)-4-oxo-7-(2-oxoimidazolidin-1-yl)-N-[(2S)-1,1,1-trifluoro-4-methylpentan-2-yl]-1,4-dihydro-1,8-naphthyridine-3-carboxamide], the negative logarithm of the EC50 (pEC50) was 7.30 and the Emax is 100%.

`CC(NC(=O)c1cn(-c2ncc(F)cc2F)c2nc(N3C[C@@H](O)[C@H](O)C3)ccc2c1=O)C(F)(F)C(F)(F)F` (mixture of isomers) [Example 88, 1-(3,5-Difluoropyridin-2-yl)-7-[(3R,4R)-3,4-dihydroxypyrrolidin-1-yl]-4-oxo-N-[3,3,4,4,4-pentafluorobutan-2-yl]-1,4-dihydro-1,8-naphthyridine-3-carboxamide]: the negative logarithm of the EC50 (pEC50) was 7.23 and the Emax is 99.5%.

`CC(C)C[C@@H](NC(=O)c1cn(-c2ncc(F)cc2F)c2nc(N3C[C@@H](O)CC3=O)ccc2c1=O)C(F)(F)F` [Example 74, 1-(3,5-Difluoropyridin-2-yl)-7-[(4S)-4-hydroxy-2-oxopyrrolidin-1-yl]-4-oxo-N-[(2R)-1,1,1-trifluoro-4-methylpentan-2-yl]-1,4-dihydro-1,8-naphthyridine-3-carboxamide]: the pEC50 is 7.85 and the Emax was determined as 100%.

As to `O=C(NC(C1CC1)C(F)(F)F)c1cn(-c2ncc(F)cc2F)c2nc(N3CC[C@@H](O)C3=O)ccc2c1=O` (stereo partly drawn) [Example 26, N-[1-Cyclopropyl-2,2,2-trifluoroethyl]-1-(3,5-difluoropyridin-2-yl)-7-[(3R)-3-hydroxy-2-oxopyrrolidin-1-yl]-4-oxo-1,4-dihydro-1,8-naphthyridine-3-carboxamide], the negative logarithm of the EC50 (pEC50) is 6.70 and the Emax turned out to be 94.5%.

Consider `O=C(NC(c1ccc(Cl)cc1)C(F)(F)F)c1cn(-c2ncc(F)cc2F)c2nc(N3C[C@@H](O)CC3=O)ccc2c1=O` (stereo partly drawn) [Example 8, N-[1-(4-Chlorophenyl)-2,2,2-trifluoroethyl]-1-(3,5-difluoropyridin-2-yl)-7-[(4S)-4-hydroxy-2-oxopyrrolidin-1-yl]-4-oxo-1,4-dihydro-1,8-naphthyridine-3-carboxamide], for which the negative logarithm of the EC50 (pEC50) was 7.08 and the Emax was 100%.

`O=C(N[C@H](C1CC1)C(F)(F)F)c1cn(-c2ncc(F)cc2F)c2nc(N3CC4CC4(O)C3)ccc2c1=O` (single isomer, unassigned) [Example 39] had a pEC50 of 7.29 and an Efficiency of 99.00%.

Turning to `O=C(N[C@H](C1CC1)C(F)(F)F)c1cn(-c2ncccc2F)c2nc(N3CC4C[C@@]4(O)C3)ccc2c1=O` (single isomer, unassigned) [Example 136], the pEC50 was 7.19 and the Emax worked out at 97.5%.

Consider `C[C@H](NC(=O)c1cn(-c2ncc(F)cc2F)c2nc(N3C[C@@H](O)CC3=O)ccc2c1=O)C(F)(F)F` [Example 3, 1-(3,5-Difluoropyridin-2-yl)-7-[(4S)-4-hydroxy-2-oxopyrrolidin-1-yl]-4-oxo-N-[(2S)-1,1,1-trifluoropropan-2-yl]-1,4-dihydro-1,8-naphthyridine-3-carboxamide], for which the pEC50 is 6.62 and the Emax stood at 97.8%.

Take `O=C(NC(c1ccccc1Cl)C(F)(F)F)c1cn(-c2ncc(F)cc2F)c2nc(N3CCNC3=O)ccc2c1=O` (single isomer, unassigned) [Example 149, N-[1-(2-Chlorophenyl)-2,2,2-trifluoroethyl]-1-(3,5-difluoropyridin-2-yl)-4-oxo-7-(2-oxoimidazolidin-1-yl)-1,4-dihydro-1,8-naphthyridine-3-carboxamide]: the pEC50 is 7.49 and the Efficiency was 100.00%.

For `CC(C)(NC(=O)c1cn(-c2ncc(F)cc2F)c2nc(N3CCC[C@@H]3CO)ccc2c1=O)C(F)(F)C(F)(F)F` [Example 188, 1-(3,5-Difluoropyridin-2-yl)-7-[(2R)-2-(hydroxymethyl)pyrrolidin-1-yl]-4-oxo-N-(3,3,4,4,4-pentafluoro-2-methylbutan-2-yl)-1,4-dihydro-1,8-naphthyridine-3-carboxamide], the negative logarithm of the EC50 (pEC50) was 6.93 and the Emax turned out to be 100%.

In turn, `CC[C@H](NC(=O)c1cn(-c2ncc(F)cc2F)c2nc(N3CC(O)C(C)C3=O)ccc2c1=O)C(F)(F)F` (single isomer, unassigned) [Example 110] gave a negative-log EC50 (pEC50) of 6.72 and an Efficiency of 94.50%.
